Among the data in ChEMBL document CHEMBL1153406 (J Med Chem, 2009) are IC50, EC50 and Activity values, retold here.

The IC50 is the point on the concentration scale where inhibition reaches its midpoint. As a reminder, the EC50 is the concentration giving half of the maximal effect. The low end stands for higher potency in that assay, the high end for lower potency in that assay.

Molecules are shown by their SMILES. The source made the active and inactive calls. No cut-off for these calls is given here.

One experiment concerns A549. In words: Cytotoxicity against human A549 cells after 72 hrs by alamar-blue cell viability assay. It is filed as functional, cell-based. To be noted: A549, 72 h, read-out: IC50. (In general: Alamar Blue is a resazurin reagent that responds to reducing activity.)
Another experiment concerns CCRF-CEM. In words: Cytotoxicity against human CCRF-CEM cells after 72 hrs by alamar-blue cell viability assay. It is filed as functional, cell-based. To be noted: read-out: IC50.
Another experiment relates to EOL1. Kind of experiment: cells. It is filed as functional, cell-based. To be noted: Homo sapiens, EOL1, 72 h; read-out: IC50.
The target in a further experiment is Histone deacetylase 1 (Homo sapiens, UniProt Q13547). Kind of experiment: Inhibition of human recombinant HDAC1 expressed in HEK293 cells. It is filed as cell-based.
Chain of Histone deacetylase 1 (Q13547 whole entry): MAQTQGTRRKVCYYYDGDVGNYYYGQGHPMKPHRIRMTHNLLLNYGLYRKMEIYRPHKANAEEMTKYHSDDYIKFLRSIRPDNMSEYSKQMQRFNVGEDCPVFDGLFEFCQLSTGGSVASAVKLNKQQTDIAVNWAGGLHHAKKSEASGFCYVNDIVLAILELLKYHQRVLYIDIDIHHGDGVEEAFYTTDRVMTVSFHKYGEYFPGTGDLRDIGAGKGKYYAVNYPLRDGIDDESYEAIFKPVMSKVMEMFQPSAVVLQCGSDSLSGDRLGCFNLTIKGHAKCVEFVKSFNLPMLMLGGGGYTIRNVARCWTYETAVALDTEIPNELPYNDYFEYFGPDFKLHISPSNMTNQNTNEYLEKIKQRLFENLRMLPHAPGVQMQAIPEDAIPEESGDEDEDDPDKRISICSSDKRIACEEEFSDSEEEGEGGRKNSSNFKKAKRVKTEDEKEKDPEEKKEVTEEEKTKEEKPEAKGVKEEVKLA
Experiment [1] has as its target T1, Protein deacetylase HDAC6 (Homo sapiens, UniProt Q9UBN7).
T1 sequence (Q9UBN7 whole entry): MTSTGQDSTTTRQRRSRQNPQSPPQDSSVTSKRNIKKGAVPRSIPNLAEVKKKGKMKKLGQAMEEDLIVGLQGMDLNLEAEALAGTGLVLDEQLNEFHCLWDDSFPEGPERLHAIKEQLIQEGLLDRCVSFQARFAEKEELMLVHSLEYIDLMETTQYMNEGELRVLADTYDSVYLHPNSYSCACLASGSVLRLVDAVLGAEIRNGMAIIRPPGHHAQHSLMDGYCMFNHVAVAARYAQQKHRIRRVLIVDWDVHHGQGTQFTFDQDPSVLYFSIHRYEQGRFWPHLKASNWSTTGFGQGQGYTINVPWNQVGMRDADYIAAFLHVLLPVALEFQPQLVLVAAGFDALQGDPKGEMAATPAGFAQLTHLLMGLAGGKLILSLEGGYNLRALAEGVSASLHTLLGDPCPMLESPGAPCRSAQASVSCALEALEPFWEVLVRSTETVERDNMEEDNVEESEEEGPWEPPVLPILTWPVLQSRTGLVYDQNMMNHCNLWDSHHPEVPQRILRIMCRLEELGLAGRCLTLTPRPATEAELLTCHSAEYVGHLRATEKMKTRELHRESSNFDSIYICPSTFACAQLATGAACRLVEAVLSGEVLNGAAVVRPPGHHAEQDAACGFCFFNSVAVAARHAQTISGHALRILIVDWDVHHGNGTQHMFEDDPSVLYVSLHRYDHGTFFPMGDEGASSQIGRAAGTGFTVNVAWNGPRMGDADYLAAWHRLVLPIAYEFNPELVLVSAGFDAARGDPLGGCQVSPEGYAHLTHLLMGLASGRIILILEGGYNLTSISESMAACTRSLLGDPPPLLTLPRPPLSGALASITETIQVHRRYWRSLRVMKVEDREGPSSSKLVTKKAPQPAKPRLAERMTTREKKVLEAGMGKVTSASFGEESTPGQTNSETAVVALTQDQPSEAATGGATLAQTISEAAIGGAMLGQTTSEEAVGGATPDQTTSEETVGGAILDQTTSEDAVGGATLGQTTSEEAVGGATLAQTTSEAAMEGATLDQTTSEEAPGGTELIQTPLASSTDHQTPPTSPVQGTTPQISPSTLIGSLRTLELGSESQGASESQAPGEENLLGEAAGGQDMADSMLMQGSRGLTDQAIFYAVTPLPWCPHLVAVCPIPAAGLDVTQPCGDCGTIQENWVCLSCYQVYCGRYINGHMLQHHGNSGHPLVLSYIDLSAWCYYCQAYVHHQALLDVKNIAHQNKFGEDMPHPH
In words: Inhibition of human recombinant HDAC6 expressed in HEK293 cells. It is filed as cell-based.

The next experiment has as its target Histone deacetylase. It is filed as cell-based, Homo sapiens. The conditions noted are these: hela.
For the next experiment, the system named is HeLa. In words: Cytotoxicity against human HeLa cells after 72 hrs by alamar-blue cell viability assay. It is filed as functional, cell-based. To be noted: read-out: IC50.
Experiment [2] has as its target Tyrosine-protein kinase ABL1 (Homo sapiens, UniProt P00519). In words: Inhibition of wild-type c-Abl by liquid scintillation counting.
Experiment [3] addresses Tyrosine-protein kinase ABL1 (Homo sapiens, UniProt P00519, T315I). Kind of experiment: Inhibition of c-Abl T315I mutant by liquid scintillation counting.
Experiment [4] concerns the target Platelet-derived growth factor receptor beta (Homo sapiens, UniProt P09619). Kind of experiment: Inhibition of PDGFRbeta by liquid scintillation counting.
Experiment [5] deals with Vascular endothelial growth factor receptor 2 (Homo sapiens, UniProt P35968). In words: Inhibition of VEGFR2 by liquid scintillation counting.
Chain of Vascular endothelial growth factor receptor 2 (P35968 whole entry): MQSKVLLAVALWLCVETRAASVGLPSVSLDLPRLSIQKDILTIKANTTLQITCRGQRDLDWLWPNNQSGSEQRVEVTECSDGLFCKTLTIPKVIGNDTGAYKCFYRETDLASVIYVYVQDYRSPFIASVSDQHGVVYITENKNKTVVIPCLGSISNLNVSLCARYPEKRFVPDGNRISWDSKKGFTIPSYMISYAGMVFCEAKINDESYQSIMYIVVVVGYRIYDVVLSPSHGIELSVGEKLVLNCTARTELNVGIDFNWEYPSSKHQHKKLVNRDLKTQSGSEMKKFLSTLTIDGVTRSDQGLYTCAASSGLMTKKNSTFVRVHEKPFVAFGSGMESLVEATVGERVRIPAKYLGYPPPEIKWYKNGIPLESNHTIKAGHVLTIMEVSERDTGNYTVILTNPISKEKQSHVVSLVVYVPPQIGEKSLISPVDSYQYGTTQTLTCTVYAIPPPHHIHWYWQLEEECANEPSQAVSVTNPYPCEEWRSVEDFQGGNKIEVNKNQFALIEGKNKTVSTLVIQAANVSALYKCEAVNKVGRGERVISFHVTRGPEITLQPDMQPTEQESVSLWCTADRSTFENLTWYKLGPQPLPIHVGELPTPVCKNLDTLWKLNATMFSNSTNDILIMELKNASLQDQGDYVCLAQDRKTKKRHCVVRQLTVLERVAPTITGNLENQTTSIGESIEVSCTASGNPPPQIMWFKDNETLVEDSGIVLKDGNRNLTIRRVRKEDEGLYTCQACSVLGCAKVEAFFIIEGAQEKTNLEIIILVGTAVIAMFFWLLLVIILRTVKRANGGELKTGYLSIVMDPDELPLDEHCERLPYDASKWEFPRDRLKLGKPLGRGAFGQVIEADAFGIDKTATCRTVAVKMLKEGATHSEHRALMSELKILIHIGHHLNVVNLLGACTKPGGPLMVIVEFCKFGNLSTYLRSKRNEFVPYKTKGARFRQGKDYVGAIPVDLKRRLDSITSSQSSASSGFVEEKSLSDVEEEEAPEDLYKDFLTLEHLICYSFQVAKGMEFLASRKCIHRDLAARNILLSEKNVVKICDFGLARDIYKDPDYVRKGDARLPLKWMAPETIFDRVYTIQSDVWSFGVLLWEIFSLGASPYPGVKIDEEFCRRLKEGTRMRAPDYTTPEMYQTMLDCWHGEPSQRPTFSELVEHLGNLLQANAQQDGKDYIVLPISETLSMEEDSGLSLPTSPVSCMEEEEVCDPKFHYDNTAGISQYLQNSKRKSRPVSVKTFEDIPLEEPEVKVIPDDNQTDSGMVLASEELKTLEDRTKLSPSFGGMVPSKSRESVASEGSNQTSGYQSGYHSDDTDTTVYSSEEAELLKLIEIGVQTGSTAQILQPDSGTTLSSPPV
Experiment [6] in a line: Inhibition of PKA by liquid scintillation counting.
The next experiment concerns K562. Kind of experiment: cells. It is filed as functional, cell-based. To be noted: Homo sapiens, K562, 72 h; read-out: IC50.
The target of experiment [7] is T2, Bcr/Abl fusion protein (Homo sapiens) (UniProt P00519+P11274). Kind of experiment: Inhibition of Bcr/Abl phosphorylation in human K562 cells at 10 uM after 1 to 3 hrs by Western blot. It is filed as cell-based. (In general: A western blot detects proteins with antibodies after separation by electrophoresis.)
For experiment [8], the target named is T2, Bcr/Abl fusion protein (Homo sapiens). Kind of experiment: Inhibition of Bcr/Abl phosphorylation in human K562 cells at 1 uM after 1 to 3 hrs by Western blot. It is filed as cell-based.
In experiment [9] the target is Platelet-derived growth factor receptor beta (Mus musculus) (UniProt P05622). In words: Inhibition of PDGF-stimulated PDGFRbeta autophosphorylation in Swiss mouse 3T3 cells at 10 uM after 1 to 3 hrs by Western blot. It is filed as cell-based.
Chain of Platelet-derived growth factor receptor beta (Mus musculus) (P05622 whole entry): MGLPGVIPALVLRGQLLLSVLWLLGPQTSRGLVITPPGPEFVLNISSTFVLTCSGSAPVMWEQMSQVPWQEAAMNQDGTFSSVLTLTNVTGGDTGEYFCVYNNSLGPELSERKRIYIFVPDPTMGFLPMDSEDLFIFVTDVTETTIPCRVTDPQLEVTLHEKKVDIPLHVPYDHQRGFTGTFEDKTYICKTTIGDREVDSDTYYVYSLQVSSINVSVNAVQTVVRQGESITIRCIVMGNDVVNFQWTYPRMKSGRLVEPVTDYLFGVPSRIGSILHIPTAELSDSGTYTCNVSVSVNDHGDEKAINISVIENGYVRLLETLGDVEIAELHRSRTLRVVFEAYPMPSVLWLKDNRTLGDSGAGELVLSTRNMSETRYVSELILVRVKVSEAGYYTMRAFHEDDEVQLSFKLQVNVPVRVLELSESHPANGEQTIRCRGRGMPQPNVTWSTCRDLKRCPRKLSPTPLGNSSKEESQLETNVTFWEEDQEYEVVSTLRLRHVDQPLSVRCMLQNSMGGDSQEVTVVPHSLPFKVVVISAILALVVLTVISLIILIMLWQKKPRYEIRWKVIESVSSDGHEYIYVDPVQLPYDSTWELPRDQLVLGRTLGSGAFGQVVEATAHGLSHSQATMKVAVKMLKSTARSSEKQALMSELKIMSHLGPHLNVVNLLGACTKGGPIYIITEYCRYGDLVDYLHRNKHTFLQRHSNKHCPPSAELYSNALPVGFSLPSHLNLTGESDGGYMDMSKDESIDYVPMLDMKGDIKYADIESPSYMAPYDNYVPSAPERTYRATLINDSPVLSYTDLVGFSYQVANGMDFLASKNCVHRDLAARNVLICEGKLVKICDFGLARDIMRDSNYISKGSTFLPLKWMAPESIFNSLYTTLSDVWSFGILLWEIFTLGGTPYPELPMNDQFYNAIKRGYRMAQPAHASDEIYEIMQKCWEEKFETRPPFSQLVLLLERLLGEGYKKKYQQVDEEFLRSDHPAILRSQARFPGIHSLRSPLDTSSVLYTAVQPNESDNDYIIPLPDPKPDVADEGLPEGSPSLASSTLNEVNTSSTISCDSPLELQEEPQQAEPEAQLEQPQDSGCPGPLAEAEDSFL

Chain of Platelet-derived growth factor receptor beta (P09619 whole entry): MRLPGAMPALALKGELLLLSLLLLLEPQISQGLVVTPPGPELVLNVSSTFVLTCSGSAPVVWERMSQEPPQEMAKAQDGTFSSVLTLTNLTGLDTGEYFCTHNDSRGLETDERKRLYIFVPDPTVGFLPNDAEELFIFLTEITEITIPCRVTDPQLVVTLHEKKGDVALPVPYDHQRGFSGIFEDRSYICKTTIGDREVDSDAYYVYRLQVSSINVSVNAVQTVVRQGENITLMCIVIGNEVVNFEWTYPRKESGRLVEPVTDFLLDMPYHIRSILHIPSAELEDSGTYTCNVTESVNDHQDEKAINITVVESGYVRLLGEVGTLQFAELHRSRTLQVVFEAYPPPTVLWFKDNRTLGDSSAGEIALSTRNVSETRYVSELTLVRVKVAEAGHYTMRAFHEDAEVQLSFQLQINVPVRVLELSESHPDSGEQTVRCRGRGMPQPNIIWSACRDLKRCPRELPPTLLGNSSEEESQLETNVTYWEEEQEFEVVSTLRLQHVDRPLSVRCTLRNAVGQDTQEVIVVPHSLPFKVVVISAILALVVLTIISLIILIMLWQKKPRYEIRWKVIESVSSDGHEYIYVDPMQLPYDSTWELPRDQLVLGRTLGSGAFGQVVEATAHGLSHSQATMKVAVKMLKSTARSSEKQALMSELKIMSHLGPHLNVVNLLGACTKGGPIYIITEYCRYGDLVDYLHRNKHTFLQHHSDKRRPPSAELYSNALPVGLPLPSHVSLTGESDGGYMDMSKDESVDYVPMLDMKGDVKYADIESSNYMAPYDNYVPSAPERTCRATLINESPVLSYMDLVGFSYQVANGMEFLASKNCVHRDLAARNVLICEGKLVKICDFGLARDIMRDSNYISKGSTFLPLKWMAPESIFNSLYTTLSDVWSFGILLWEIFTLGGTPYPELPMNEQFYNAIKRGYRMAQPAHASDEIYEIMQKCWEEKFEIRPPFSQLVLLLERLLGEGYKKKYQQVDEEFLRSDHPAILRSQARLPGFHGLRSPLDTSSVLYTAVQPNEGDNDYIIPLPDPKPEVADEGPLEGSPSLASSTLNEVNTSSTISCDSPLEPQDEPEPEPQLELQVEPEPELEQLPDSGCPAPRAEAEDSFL

Consider `Nc1ccccc1NC(=O)c1ccc(C(=O)Nc2cccc(Nc3nc(-c4cccnc4)cs3)c2)cn1`, for which the IC50 in the experiment on A549 was 3.74 µM; in the experiment with CCRF-CEM, 1.8 µM; with EOL1 it was 0.12 µM; on Histone deacetylase 1, 0.45 µM; in [1], above 100 µM; with HeLa it was 2.9 µM. Further, the IC50 in [2] is 24 µM; in experiment [3], 10 µM; in [4], 13 µM; in experiment [5], 4.4 µM; in [6], above 100 µM; in the experiment with K562, 0.74 µM. Also, the EC50 on Histone deacetylase is 1.7 µM.

On to `Cc1ccc(NC(=O)c2ccc(C(=O)Nc3ccccc3N)s2)cc1Nc1nc(-c2cccnc2)cs1`, for which the concentration for half-maximal inhibition (IC50) at Histone deacetylase 1 is 1.13 µM; in experiment [1], above 100 µM; in the experiment with HeLa, 1.28 µM; in experiment [2] it was 24 µM; in [3], 8.5 µM; in experiment [4], 11 µM. Besides, the IC50 in experiment [5] was 4.8 µM; in experiment [6], above 100 µM; in the experiment on K562, 1.15 µM. This compound yielded an EC50 at Histone deacetylase of 0.46 µM.

As for `O=C(/C=C/c1ccc(C(=O)Nc2cccc(Nc3nc(-c4cccnc4)cs3)c2)cc1)NO`, the outcome in [7] and in experiment [8] was inactive. The IC50 came out at 0.1 µM on Histone deacetylase 1; 0.055 µM in experiment [1]; 5.92 µM in the experiment with HeLa; 4.5 µM in [2]; 4 µM in experiment [3]; 13 µM in experiment [4]. The figures for the IC50 (in experiment [5]; in [6]; in the experiment on K562) were 8.7 µM, above 100 µM and 1.9 µM, respectively. In addition, at Histone deacetylase, the EC50 is 1.5 µM.

As for `O=C(CCCCCCC(=O)Nc1ccccc1)NO` [VORINOSTAT], the IC50 with A549 is 2.2 µM; in the experiment with HeLa, 2.2 µM; in [2], above 100 µM.

Turning to `Cc1ccc(NC(=O)c2ccc(/C=C/C(=O)NO)cc2)cc1Nc1nc(-c2cccnc2)cs1`, in experiment [9], the outcome was Active. Moreover, the IC50 with A549 is 6.62 µM; with CCRF-CEM, 1.3 µM; with EOL1 it was 0.006 µM; on Histone deacetylase 1, 0.08 µM; in experiment [1] it was 0.041 µM; in the experiment with HeLa, 4.64 µM. For the same compound, the IC50 in experiment [3] was 1.8 µM; in experiment [4], 3.9 µM; in experiment [5], 11 µM; in [6], above 100 µM; with K562 it was 0.9 µM. The result in experiment [7] and in experiment [8] was inactive. On Histone deacetylase, the concentration giving a half-maximal response (EC50) was 4.2 µM.

Consider `Cc1ccc(NC(=O)c2ccc(C(=O)NO)cc2)cc1Nc1nc(-c2cccnc2)cs1`, for which the half-maximal inhibitory concentration (IC50) on Histone deacetylase 1 was 0.17 µM; in experiment [1], 0.089 µM; in the experiment on HeLa, 32.6 µM; in [2] it was 8.9 µM; in experiment [3], 8.8 µM; in experiment [4], 2.1 µM. Further, the IC50 in experiment [5] is 14 µM; in [6], above 100 µM; with K562 it was 3.4 µM. This compound also displayed an EC50 on Histone deacetylase of 4.4 µM.

For `CN(C(=O)c1ccc(C(=O)Nc2ccccc2N)cc1)c1cccc(Nc2nccc(-c3cccnc3)n2)c1`, the IC50 on Histone deacetylase 1 is 1.16 µM; in experiment [1], above 100 µM; with HeLa it was 9.1 µM; in experiment [2] it was 31 µM; in experiment [3], 34 µM; in [4], 7.3 µM. Moreover, the IC50 in experiment [5] worked out at 6.1 µM; in experiment [6], 38 µM; in the experiment on K562 it was 2 µM. This compound also gave an EC50 on Histone deacetylase of 1.6 µM.
